# Measurements from US12600943B2, “Innervated organoid compositions and methods of making same” (priority 2019, dated 2026).
# Legend:
# Assay type in all cases: cell-based, human
# [1] = tested on: hPSCs (hPSC-to-NC transition); test: hPSC-to-NC differentiation, flow cytometry of HNK-1+ p75NTR+ cells; conditions: for percentage of HNK-1+ p75NTR+ cells (NC yield): flow cytometry at day 10
# HCOs+ENCCs explants = test: Electrical-field stimulation (EFS) of explanted innervated HCO kidney grafts
# [2] = tested on: ENCC-derived neurons in HCO explants; test: Ex vivo neuromuscular coupling test of HCO muscle strips (DMPP stimulation)
# hPSC-derived NC cells [3] = test: Single-cell RNA-seq clustering of hPSC-derived NC cells; conditions: SAG treatment groups (day 0-4, day 0-10)
# Description: To understand how HH signaling influences the topology of the neuronal differentiation path of NC, Applicant profiled additional 1,146 single-cell transcriptomes of NC cells with the constant (day 0-10) or early-phase (day 0-4) SAG treatment and NC-derived neurons sampled from day 32 of differentiation as shown in FIG. 4A. Together with 392 control NC cells, a total of 1,538 individual cells were sequenced with 5844 median genes and 1.16 million mean confident mapped reads per cell (FIG. 8). […]
# Bulk and single-cell (sc) RNA sequencing were performed at the Centre of Genomic Science, The University of Hong Kong. […] Then, 1 μl of cDNA was checked and quantified on an Agilent Bioanalyzer high-sensitivity DNA chip. […] Libraries were checked and quantified on an Agilent Bioanalyzer high-sensitivity DNA chip (size range 150-2000 bp) and by Qubit dsDNA BR (Molecular Probes). […]
# Fastq files with paired-end reads were aligned to the ENSEMBL GRCh38 (release 90, https://www.ensembl.org/) human transcriptome using Bowtie2 v2.3.4.1 (Langmead and Salzberg, 2012) with options ‘—sensitive—mp 1,1—np 1—score-min L,0,-0.1-I 1-X 2000—no-mixed—no-discordant-N 1-L 25-k 200’ which allows one mismatch during sequence alignment. Quality control of the reads of each cell was assessed using FastQC v0.11.6 (FIG. 8). Gene expression level was quantified using TPM values generated by RSEM v1.3.0 (Li and Dewey, 2011). […]
# hPSC-derived NC cells [4] = test: In vitro neuronal differentiation of FACS-sorted NC cells, immunocytochemistry; conditions: NC^SAG0-10 cells, day 22 of differentiation
# Description: On the other hand, NC^SAG0-10 cells could grow and expand as competently as the control cells. Applicant then examined the differentiation potential of NC^SAG0-10 cells on the basis of their neuronal differentiation capability, as monitored by the expression of pan-neuronal markers (HU, TUJ1 and PGP9.5) and subtype markers, such as tyrosine hydroxylase (TH) for dopaminergic neurons and vasoactive intestinal polypeptide (VIP) for cholinergic neurons, which are the major subtypes of nerve cells found in the ENS.
# Around 40 thousand FACS-enriched NC cells were seeded as droplets on poly-ornithine/laminin/fibronectin (PO/LM/FN)-coated 24 well plate in N2 medium containing 10 ng/ml FGF2, 3 μM CHIR99021 and 10 μM Y-27632. […]
# For immunocytochemistry, the cells were fixed with 4% paraformaldehyde in PBS at room temperature for 30 min, followed by blocking with 1% bovine serum albumin (BSA) (Thermo Scientific, 23209) with or without 0.1% Triton X-100 (Sigma, T8787) in PBS buffer. […] Quantitative image analysis of differentiated neuronal cultures was performed with ImageJ. A minimum of 4,000 cells were analyzed per sample. Percentages of neuronal cells were measured over the total number of cells (DAPI) and the values reported in bar charts represent the mean±SEM.
# hPSCs = test: Early-phase lineage immunocytochemistry during NC induction (SOX2+NANOG-, SNAIL+, TUJ1+/TH+)
# HCOs+ENCCs = test: Innervated HCO model, immunostaining of neurons
smiles,measurement,setting,value
CC1=C2C[C@H]3[C@@H](CC=C4C[C@@H](O)CC[C@@]43C)[C@@H]2CC[C@]12O[C@@H]1C[C@H](C)CN[C@H]1[C@H]2C [cyclopamine],hPSC-to-NC transition (percentage of HNK-1+p75NTR+ cells),[1],dramatically suppressed
"NC1=N[C@H](O)[C@H]2[C@H]3O[C@]4(O)O[C@@H]([C@@H](O)[C@@]2(N1)[C@@H]4O)[C@]3(O)CO [TTX, tetrodotoxin]",EFS-induced contractions,HCOs+ENCCs explants,completely inhibited
same,contractile activity triggered by low-voltage stimulation,HCOs+ENCCs explants,completely inhibited
same,DMPP-induced muscle contraction,[2],completely abolished
CNC1CCC(N(Cc2cccc(-c3ccncc3)c2)C(=O)c2sc3ccccc3c2Cl)CC1 (stereo not shown) [SAG],percentage of HNK-1+ p75NTR+ cells (NC yield),"[1]; SAG 1 μM, days 0-10 (constant), untreated 19.6±0.51%",42.5±9.3%
same,percentage of HNK-1+ p75NTR+ cells (NC yield),[1]; SAG added 4 days in early phase (day 0-4),up to 44.6±9.1%
same,"proportion of SAG-specific NC intermediates (Clusters 6 & 7; SOX10-, PHOX2B+, TUBB3high) in total population",hPSC-derived NC cells [3],up to 75%
same,numbers of TH+ and VIP+ neurons compared to control,hPSC-derived NC cells [4],Significantly greater numbers
same,number of SOX2+NANOG- cells (ectoderm lineage commitment),"hPSCs; brief activation in early phase of NC induction, day 4 of differentiation",increases the number
same,formation of NC-like cells (SNAIL+),hPSCs; longer SAG treatment (4 days),emerged as early as day 4
same,NC-to-neuron transition,hPSCs; prolonged (day 0-10) or late-phase (day 4-10) SAG treatment,boosted the NC-to-neuron transition
same,EFS-induced wave-like contractions compared to HCO+ENCC group,HCOs+ENCCs explants; HCO+ENCC^SAG0_10 explants (ENCCs derived with SAG day 0-10),more profound series of wave-like contractions
same,contractile responses to DMPP compared to HCO+ENCC,[2]; HCO+ENCC^SAG0_10,stronger contractile responses
same,mature neurons expressing PGP9.5 and NF vs control,HCOs+ENCCs; HCO+ENCCs^SAG0_10 explants,more mature neurons
same,TUJ1+ and TH+ cells aligned with epithelial cells of HCOs vs control,HCOs+ENCCs; HCOs with ENCCs^SAG0_10 in vitro (Day 28),more TUJ1^+ and TH^+ cells
same,survival and engraftment efficiency of ENCCs to HCOs,HCOs+ENCCs; SAG treatment during NC induction,greatly improves
